Here are results for five compounds from paper PMC7650660, “Potential of Cell-Free Supernatant from Lactobacillus plantarum NIBR97, Including Novel Bacteriocins, as a Natural Alternative to Chemical Disinfectants” (Pharmaceuticals, 2020).

Broadly, the MIC50 is an inhibitory concentration at the 50% level, which refers to growth in some studies and to a panel of isolates in others. Lower therefore signals higher susceptibility.

≈ marks a conversion by molar mass, not a printed value. Peptide text beside a SMILES is read from it.

Series [1] concerns HEK-293T cells (human host cells). Description: Cytotoxic effect on host cells (bright-field images) in the lentivirus test. The note with it: lentiviruses treated with 5 μg/μL of synthetic peptides. It counts as cell-based. The procedure: (A) For fluorescence microscopy, we treated GFP-labeled lentiviruses with the cell-free supernatant for 5 min and 24 h, and then were infected in HEK-293T human host cells. The 1× and 5× correspond to the concentrations treated to the lentiviruses, 79.15 and 395.75 μg total proteins/mL, respectively. The bright-field images (Bright) indicate the HEK-293T cells, and the green signals in the fluorescent images (GFP) represent the GFP-labeled lentiviruses. (B) For scanning electron microscopy, the GFP-labeled lentiviruses were treated without (a) or with the cell-free supernatant (395.75 μg total proteins/mL) (b) for 5 min.
Figure 5 Fluorescence micrographs of HEK-293T cells infected with GFP-labeled lentiviruses treated with synthetic Pln 3 and 5. The lentiviruses were treated without (control) or with the synthetic peptides (1 to 5 μg/μL) Pln 3 (A) and 5 (B) for 5 min or 24 h, and then the HEK-293T human host cells were infected. The bright-field images (Bright) indicate the HEK-293T cells, and the green signals in the fluorescent images (GFP) represent the GFP-labeled lentiviruses.
For the anti-viral test, we co-incubated 2 μL of lentivirus soup (2.8 × 10^6 lentiviruses/μL) with 2 μL of test sample for 5 min and 24 h at 25 °C. After the co-incubation, 2 μL from the total 4 μL of the test sample–lentivirus mixture was infected in HEK-293T cells (1 × 10^4 cells per well).

For the next series, the system named is Salmonella Typhimurium. It counts as cell-based. The settings on record: synthetic peptides against S. Typhimurium; Figure S3. Here is the method:
L. plantarum NIBR97 was incubated at 37 °C for 24 h in an MRS liquid medium (10 g/L peptone, 8 g/L meat extract, 4 g/L yeast extract, 20 g/L d(+)-glucose, 2 g/L dipotassium hydrogen phosphate, 5 g/L sodium acetate trihydrate, 2 g/L triammonium citrate, 0.2 g/L magnesium sulfate heptahydrate, and 0.05 g/L manganous sulfate tetrahydrate). The cultural broth was centrifuged for 20 min at 2000× g, and the centrifugal supernatant was collected and then sterilized by a 0.22 μm filtration. The sterilized fluid was either applied directly for the examination of antimicrobial activity or fractionated and stored at −80 °C until use. The assessment of antimicrobial activity on a microtiter plate was performed by some modification of the dilution assay of Wiegand et al.. The MIC50 and MIC90 were expressed as total proteins equivalent (μg) per volume (mL) of the sample, and the effect of proteinase K treatment was examined by a previously described procedure.
Figure 3. Antibacterial activity of synthetic Plantaricins identified from the L. plantarum NIBR97
genome. Pln 1, 2, 3, 4 and 5 were synthesized according to the amino acid sequences in Figure 3, and
further examined for their antibacterial activity against a Salmonella enterica serotype, S.
The Y axis in the graphs represents the relative growth of S. Typhimurium. […]

As for `CSCC[C@H](NC(=O)CNC(=O)[C@@H](NC(=O)[C@@H]1CCCN1C(=O)[C@H](CCSC)NC(=O)CNC(=O)[C@H](CC(N)=O)NC(=O)[C@H](CC(N)=O)NC(=O)[C@H](Cc1ccc(O)cc1)NC(=O)[C@@H](NC(=O)[C@H](CCC(N)=O)NC(=O)[C@H](CS)NC(=O)[C@H](CCCNC(=N)N)NC(=O)[C@H](CCCNC(=N)N)NC(=O)[C@H](CO)NC(=O)[C@H](CCCCN)NC(=O)[C@@H](N)CCCCN)C(C)C)[C@@H](C)O)C(=O)N[C@@H](Cc1ccc(O)cc1)C(=O)N[C@H](C(=O)N[C@@H](CO)C(=O)N[C@@H](CS)C(=O)O)[C@@H](C)O` [Pln 3] (H-KKSRRCQVYNNGMPTGMYTSC-OH), in series [1], the “cytotoxicity on the human host cells” value is listed as “exhibited a cytotoxicity on the human host cells”. Further, the MIC50 against Salmonella Typhimurium came to 5170 µg/mL (≈ 2130 µM).
Regarding `CC[C@H](C)[C@H](NC(=O)CNC(=O)[C@@H](NC(=O)[C@H](C)NC(=O)[C@H](CCSC)NC(=O)[C@H](C)NC(=O)[C@H](CCCCN)NC(=O)[C@H](Cc1ccccc1)NC(=O)[C@@H]1CCCN1C(=O)[C@H](CCC(=O)O)NC(=O)[C@H](CCCNC(=N)N)NC(=O)[C@@H](NC(=O)[C@@H](NC(=O)[C@@H]1CCCN1)[C@@H](C)CC)C(C)C)C(C)C)C(=O)N[C@H](C(=O)N[C@@H](CC(C)C)C(=O)N[C@@H](C)C(=O)N[C@H](C(=O)N[C@@H](CCSC)C(=O)N[C@@H](CO)C(=O)NCC(=O)N[C@@H](CC(C)C)C(=O)N[C@@H](CC(C)C)C(=O)N[C@H](C(=O)N[C@H](C(=O)O)[C@@H](C)O)C(C)C)C(C)C)[C@@H](C)CC` [Pln 4] (H-PIVREPFKAMAVGIILAVMSGLLVT-OH), the MIC50 against Salmonella Typhimurium came out at 5650 µg/mL (≈ 2150 µM).
Still for that read-out and setting: for `CC[C@H](C)[C@H](NC(=O)CNC(=O)[C@@H](NC(=O)[C@H](CO)NC(=O)CNC(=O)[C@@H](NC(=O)[C@H](CC(C)C)NC(=O)[C@H](CO)NC(=O)CNC(=O)[C@H](CC(C)C)NC(=O)[C@@H](N)C(C)C)[C@@H](C)CC)C(C)C)C(=O)NCC(=O)N[C@H](C(=O)N[C@@H](CC(C)C)C(=O)N[C@@H](CO)C(=O)N[C@@H](CO)C(=O)N[C@@H](CC(C)C)C(=O)N[C@@H](C)C(=O)N[C@@H](C)C(=O)N[C@@H](CCCNC(=N)N)C(=O)N[C@@H](Cc1ccc(O)cc1)C(=O)N[C@@H](CCCCN)C(=O)O)C(C)C` [Pln 1] (H-VLGSLIGSVGIGVLSSLAARYK-OH) the value was 5480 µg/mL (≈ 2540 µM); for `CC[C@H](C)[C@H](N)C(=O)N[C@@H](Cc1ccc(O)cc1)C(=O)N1CCC[C@H]1C(=O)N[C@@H](CCC(=O)O)C(=O)N[C@@H](CCCCN)C(=O)N[C@@H](CCC(N)=O)C(=O)N1CCC[C@H]1C(=O)N[C@@H](CCC(=O)O)C(=O)N[C@@H](CCC(=O)O)C(=O)N1CCC[C@H]1C(=O)N[C@H](C(=O)N[C@@H](CCCNC(=N)N)C(=O)N[C@@H](CCCNC(=N)N)C(=O)O)C(C)C` [Pln 2] (H-IYPEKQPEEPVRR-OH), 4840 µg/mL (≈ 2950 µM).
Turning to `CC(C)C[C@H](NC(=O)[C@H](CCCNC(=N)N)NC(=O)[C@H](CC(N)=O)NC(=O)[C@H](CCCNC(=N)N)NC(=O)[C@H](CC(C)C)NC(=O)[C@H](Cc1ccccc1)NC(=O)[C@H](CCCNC(=N)N)NC(=O)[C@H](CCCCN)NC(=O)[C@H](CCCCN)NC(=O)[C@H](C)NC(=O)[C@@H](N)CCCCN)C(=O)N[C@@H](CO)C(=O)N[C@@H](CCC(N)=O)C(=O)N[C@@H](CCC(N)=O)C(=O)N[C@@H](C)C(=O)N[C@@H](CCCNC(=N)N)C(=O)N[C@@H](CCCCN)C(=O)N[C@@H](C)C(=O)N[C@@H](CCCNC(=N)N)C(=O)N[C@H](C(=O)N[C@@H](CCCCN)C(=O)O)[C@@H](C)O` [Pln 5] (H-KAKKRFLRNRLSQQARKARTK-OH), the “cytotoxicity on the human host cells” value in series [1] is “exhibited a cytotoxicity on the human host cells”. In the series with Salmonella Typhimurium, the MIC50 was 4450 µg/mL (≈ 1720 µM).
